The target of the assay is USP7 (Homo sapiens (Human), UniProt Q93009). As to the kind of experiment: USP7 fluorescence polarisation (FP) biochemical assay, ubiquitin-Lys-TAMRA substrate. As to conditions: average of at least duplicate experiments. The procedure, abridged: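 Full-length His6-USP7 (2.5 nM) incubated ± inhibitor (8-point dilutions, 200 to 0.1 μM before addition) in 50 mM HEPES pH 7.2, 150 mM NaCl, 0.5 mM EDTA, 5 mM DTT, 0.05% BSA, 0.05% CHAPS. Ubiquitin-Lys-TAMRA cleavage followed by FP (ex 530/em 575 nm) every 15 min for 1.5 h; normalised to no-compound control.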

[1] abbreviates: Table 4, biochemical assay, read-out: USP7 IC50.

Read-outs that look alike come from different tables or passages of the source.

Chain of USP7 (Q93009 whole entry): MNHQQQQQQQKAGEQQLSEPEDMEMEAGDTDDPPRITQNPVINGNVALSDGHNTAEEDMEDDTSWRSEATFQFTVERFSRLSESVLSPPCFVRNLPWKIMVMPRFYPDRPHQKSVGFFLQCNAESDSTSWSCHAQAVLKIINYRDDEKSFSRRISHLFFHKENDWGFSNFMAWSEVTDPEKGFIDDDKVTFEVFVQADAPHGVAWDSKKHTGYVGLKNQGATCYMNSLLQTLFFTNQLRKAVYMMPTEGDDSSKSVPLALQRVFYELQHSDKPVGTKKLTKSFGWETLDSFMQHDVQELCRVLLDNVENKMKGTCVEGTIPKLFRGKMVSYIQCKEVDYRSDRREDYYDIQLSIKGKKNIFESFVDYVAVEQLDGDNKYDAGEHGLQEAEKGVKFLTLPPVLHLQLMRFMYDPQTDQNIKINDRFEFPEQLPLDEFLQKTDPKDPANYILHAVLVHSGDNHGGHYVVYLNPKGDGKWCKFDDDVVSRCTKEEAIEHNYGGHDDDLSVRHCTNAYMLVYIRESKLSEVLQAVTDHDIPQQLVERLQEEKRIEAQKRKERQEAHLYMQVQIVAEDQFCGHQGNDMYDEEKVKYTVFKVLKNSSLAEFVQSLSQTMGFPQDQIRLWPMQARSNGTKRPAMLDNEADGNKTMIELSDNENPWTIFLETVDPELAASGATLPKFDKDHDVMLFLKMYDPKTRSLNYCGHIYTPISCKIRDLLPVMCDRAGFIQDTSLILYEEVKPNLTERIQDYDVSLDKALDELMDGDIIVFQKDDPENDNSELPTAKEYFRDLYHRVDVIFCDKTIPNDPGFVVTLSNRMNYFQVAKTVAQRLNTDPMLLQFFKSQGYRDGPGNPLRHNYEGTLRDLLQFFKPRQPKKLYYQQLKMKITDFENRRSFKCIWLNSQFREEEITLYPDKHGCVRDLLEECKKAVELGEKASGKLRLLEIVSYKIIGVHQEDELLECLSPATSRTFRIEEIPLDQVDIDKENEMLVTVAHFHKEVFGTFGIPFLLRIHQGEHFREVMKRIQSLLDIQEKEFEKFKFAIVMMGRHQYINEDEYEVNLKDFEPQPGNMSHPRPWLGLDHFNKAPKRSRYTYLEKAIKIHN

For the compound `O=C(C[C@H](c1ccccc1)C(F)F)N1CCC(O)(Cn2cnc(NCCN3CCCC3)cc2=O)CC1` [Example 89, (R)-3-((1-(4,4-Difluoro-3-phenylbutanoyl)-4-hydroxypiperidin-4-yl)methyl)-6-((2-(pyrrolidin-1-yl)ethyl)amino)pyrimidin-4(3H)-one, Formic Acid], the IC50 (USP7 IC50, Table 4, biochemical assay) was 250 to 999 nM.

`CNCc1ccc(-c2c3ncn(CC4(O)CCN(C(=O)C[C@H](c5ccccc5)C(F)(F)F)CC4)c(=O)c3nn2C)cc1` [Example 83, (R)-6-((4-Hydroxy-1-(4,4,4-trifluoro-3-phenylbutanoyl)piperidin-4-yl)methyl)-2-methyl-3-(4-((methylamino)methyl)phenyl)-2H-pyrazolo[4,3-d]pyrimidin-7(6H)-one]: the IC50 under setting [1] was below 250 nM.

As for `Cn1cc(C(=O)N2CCC(O)(Cn3cnc4c(cc(Cl)n4-c4cccc(C5CC5)c4)c3=O)CC2)cn1` [Example 219, 6-Chloro-7-(3-cyclopropylphenyl)-3-((4-hydroxy-1-(1-methyl-1H-pyrazole-4-carbonyl)piperidin-4-yl)methyl)-3H-pyrrolo[2,3-d]pyrimidin-4(7H)-one], the IC50 under setting [1] is below 250 nM.

Consider `C[C@H](CC(=O)N1CCC(O)(Cn2cnc(NC3CCOC3)cc2=O)CC1)c1ccccc1` (stereo partly drawn) [Example 151, 3-((4-hydroxy-1-((R)-3-phenylbutanoyl)piperidin-4-yl)methyl)-6-((tetrahydrofuran-3-yl)amino)pyrimidin-4(3H)-one], for which the IC50 under setting [1] was in the range of 1000 to 200000 nM.

Regarding `C[C@H](CC(=O)N1CCC(O)(Cn2cnc(N3CC(F)C3)cc2=O)CC1)c1ccccc1` [Example 165, (R)-6-(3-fluoroazetidin-1-yl)-3-((4-hydroxy-1-(3-phenylbutanoyl)piperidin-4-yl)methyl)pyrimidin-4(3H)-one], under setting [1], the IC50 was 1000 to 200000 nM.

With `C[C@H](CC(=O)N1CCC(O)(Cn2cnc(N3CCC(C)(O)C3)cc2=O)CC1)c1ccccc1` (stereo partly drawn) [Example 150, 3-((4-hydroxy-1-((R)-3-phenylbutanoyl)piperidin-4-yl)methyl)-6-(3-hydroxy-3-methylpyrrolidin-1-yl)pyrimidin-4(3H)-one], the IC50 under setting [1] is 1000 to 200000 nM.

In the case of `Cn1cc(-c2cc(-n3c(Cl)cc4c(=O)n(CC5(O)CCN(C(=O)C6(C)CC6)CC5)cnc43)ccc2F)cn1` [Example 233, 6-Chloro-7-(4-fluoro-3-(1-methyl-1H-pyrazol-4-yl)phenyl)-3-((4-hydroxy-1-(1-methylcyclopropanecarbonyl)piperidin-4-yl)methyl)-3H-pyrrolo[2,3-d]pyrimidin-4(7H)-one], the IC50 under setting [1] was below 250 nM.

`Cn1nc2c(=O)n(CC3(O)CCN(C(=O)CC(C4CC4)C4CC4)CC3)cnc2c1-c1ccc(CN)cc1` [Example 127, 3-(4-(Aminomethyl)phenyl)-6-((1-(3,3-dicyclopropylpropanoyl)-4-hydroxypiperidin-4-yl)methyl)-2-methyl-2H-pyrazolo[4,3-d]pyrimidin-7(6H)-one]: the IC50 under setting [1] was below 250 nM.

With `O=C(c1cnc(C2CC2)o1)N1CCC(O)(Cn2cnc3c(cc(Cl)n3-c3cccc(C4CC4)c3)c2=O)CC1` [Example 217, 6-Chloro-3-((1-(2-cyclopropyloxazole-5-carbonyl)-4-hydroxypiperidin-4-yl)methyl)-7-(3-cyclopropylphenyl)-3H-pyrrolo[2,3-d]pyrimidin-4(7H)-one], the IC50 under setting [1] was below 250 nM.

For `O=C(c1cnc(C2CC2)o1)N1CCC(O)(Cn2cnc3c(cc(Cl)n3-c3ccc(Cl)cc3)c2=O)CC1` [Example 228, 6-Chloro-7-(4-chlorophenyl)-3-((1-(2-cyclopropyloxazole-5-carbonyl)-4-hydroxypiperidin-4-yl)methyl)-3H-pyrrolo[2,3-d]pyrimidin-4(7H)-one], the IC50 under setting [1] is below 250 nM.

Take `C[C@H](CC(=O)N1CCC(O)(Cn2cnc(N3CC4(CCCO4)C3)cc2=O)CC1)c1ccccc1` [Example 169, (R)-3-((4-hydroxy-1-(3-phenylbutanoyl)piperidin-4-yl)methyl)-6-(5-oxa-2-azaspiro[3.4]octan-2-yl)pyrimidin-4(3H)-one]: the IC50 under setting [1] was 1000 to 200000 nM.

The values are drawn from patent US10766903B2 (ALMAC DISCOVERY LIMITED, priority 2016, dated 2020).
